Data reported in the NIST ThermoML archive (doi:10.1016/j.jct.2011.02.018).
Numbers after ± are expanded uncertainties.

Assay: xn = mol fraction of the nth substance listed
Conditions: 101 kPa, Liquid; for viscosity: Concentric cylinders viscometry; for mass density: Vibrating tube method

COC(C)(C)C [2-methoxy-2-methylpropane] + CCCCCCO
Conditions	mass density, 293.15 K [kg/m3]	mass density, 298.15 K [kg/m3]	mass density, 303.15 K [kg/m3]	mass density, 308.15 K [kg/m3]	viscosity, 293.15 K [mPa·s]	viscosity, 298.15 K [mPa·s]	viscosity, 303.15 K [mPa·s]	viscosity, 308.15 K [mPa·s]
x1 = 0.0103	818.26 ± 0.63	814.71 ± 0.63	811.1 ± 0.63	807.46 ± 0.62	5.223 ± 0.22	4.46 ± 0.19	3.832 ± 0.16	3.31 ± 0.14
x1 = 0.0204	817.68 ± 0.62	814.12 ± 0.62	810.49 ± 0.62	806.85 ± 0.61	5.039 ± 0.21	4.314 ± 0.18	3.714 ± 0.16	3.214 ± 0.13
x1 = 0.0304	817.11 ± 0.61	813.53 ± 0.61	809.9 ± 0.61	806.24 ± 0.6	4.87 ± 0.2	4.175 ± 0.17	3.6 ± 0.15	3.12 ± 0.13
x1 = 0.0408	816.51 ± 0.6	812.92 ± 0.6	809.27 ± 0.6	805.6 ± 0.59	4.696 ± 0.2	4.036 ± 0.17	3.486 ± 0.15	3.026 ± 0.13
x1 = 0.0495	816 ± 0.59	812.4 ± 0.59	808.75 ± 0.59	805.07 ± 0.58	4.562 ± 0.19	3.925 ± 0.16	3.395 ± 0.14	2.951 ± 0.12
x1 = 0.0625	815.23 ± 0.58	811.62 ± 0.58	807.96 ± 0.57	804.26 ± 0.57	4.361 ± 0.18	3.761 ± 0.16	3.259 ± 0.14	2.839 ± 0.12
x1 = 0.0705	814.74 ± 0.57	811.12 ± 0.57	807.44 ± 0.57	803.74 ± 0.56	4.252 ± 0.18	3.67 ± 0.15	3.185 ± 0.13	2.779 ± 0.12
x1 = 0.0799	814.17 ± 0.56	810.54 ± 0.56	806.85 ± 0.56	803.14 ± 0.56	4.113 ± 0.17	3.555 ± 0.15	3.09 ± 0.13	2.699 ± 0.11
x1 = 0.0912	813.49 ± 0.55	809.83 ± 0.55	806.14 ± 0.55	802.42 ± 0.55	3.959 ± 0.17	3.433 ± 0.14	2.991 ± 0.12	2.621 ± 0.11
x1 = 0.0994	813.01 ± 0.55	809.36 ± 0.54	805.66 ± 0.54	801.92 ± 0.54	3.852 ± 0.16	3.343 ± 0.14	2.913 ± 0.12	2.549 ± 0.11
x1 = 0.1508	809.87 ± 0.5	806.15 ± 0.5	802.39 ± 0.5	798.59 ± 0.49	3.253 ± 0.14	2.842 ± 0.12	2.493 ± 0.1	2.198 ± 0.091
x1 = 0.205	806.42 ± 0.46	802.7 ± 0.46	798.86 ± 0.46	795 ± 0.46	2.733 ± 0.11	2.44 ± 0.1	2.173 ± 0.09	1.892 ± 0.079
x1 = 0.2579	802.99 ± 0.43	799.15 ± 0.43	795.26 ± 0.42	791.32 ± 0.42	2.318 ± 0.096	2.067 ± 0.086	1.848 ± 0.077	1.634 ± 0.068
x1 = 0.3	800.17 ± 0.4	796.26 ± 0.4	792.3 ± 0.4	788.3 ± 0.4	2.047 ± 0.085	1.828 ± 0.076	1.636 ± 0.068	1.468 ± 0.061
x1 = 0.3574	796.2 ± 0.37	792.23 ± 0.37	788.18 ± 0.37	784.11 ± 0.37	1.724 ± 0.071	1.56 ± 0.065	1.392 ± 0.058	1.257 ± 0.052
x1 = 0.4012	793.09 ± 0.35	789.05 ± 0.35	784.94 ± 0.35	780.8 ± 0.35	1.53 ± 0.063	1.368 ± 0.056	1.239 ± 0.051	1.122 ± 0.046
x1 = 0.4501	789.54 ± 0.33	785.43 ± 0.33	781.24 ± 0.33	777.03 ± 0.33	1.324 ± 0.055	1.197 ± 0.049	1.09 ± 0.045	0.9929 ± 0.041
x1 = 0.5028	785.58 ± 0.31	781.39 ± 0.31	777.12 ± 0.31	772.81 ± 0.31	1.145 ± 0.047	1.045 ± 0.043	0.9538 ± 0.039	0.8711 ± 0.036
x1 = 0.5637	780.83 ± 0.29	776.53 ± 0.3	772.16 ± 0.3	767.75 ± 0.3	0.9727 ± 0.04	0.8921 ± 0.037	0.8183 ± 0.034	0.7502 ± 0.031
x1 = 0.598	778.11 ± 0.29	773.75 ± 0.29	769.31 ± 0.29	764.84 ± 0.29	0.8885 ± 0.037	0.8156 ± 0.034	0.7488 ± 0.031	0.6862 ± 0.028
x1 = 0.6508	773.76 ± 0.27	769.32 ± 0.27	764.78 ± 0.28	760.21 ± 0.28	0.7769 ± 0.032	0.7149 ± 0.029	0.6592 ± 0.027	0.6063 ± 0.025
x1 = 0.7	769.62 ± 0.26	765.05 ± 0.27	760.44 ± 0.27	755.77 ± 0.27	0.6805 ± 0.028	0.6305 ± 0.026	0.5829 ± 0.024	0.5443 ± 0.023
x1 = 0.7493	765.32 ± 0.26	760.67 ± 0.26	755.96 ± 0.26	751.19 ± 0.26	0.6088 ± 0.025	0.5658 ± 0.023	0.523 ± 0.022	0.481 ± 0.02
x1 = 0.7994	760.79 ± 0.25	756.02 ± 0.25	751.14 ± 0.25	746.31 ± 0.25	0.5397 ± 0.022	0.5033 ± 0.021	0.4676 ± 0.019	0.4306 ± 0.018
x1 = 0.8514	755.91 ± 0.25	751.04 ± 0.25	746.09 ± 0.25	741.09 ± 0.25	0.4782 ± 0.02	0.4484 ± 0.019	0.4172 ± 0.017	0.389 ± 0.016
x1 = 0.903	750.84 ± 0.24	745.85 ± 0.24	740.79 ± 0.25	735.68 ± 0.25	0.424 ± 0.018	0.397 ± 0.017	0.3679 ± 0.016	0.3464 ± 0.015
x1 = 0.9095	750.2 ± 0.24	745.2 ± 0.24	740.12 ± 0.25	735 ± 0.25	0.418 ± 0.017	0.3923 ± 0.017	0.3635 ± 0.015	0.3436 ± 0.015
x1 = 0.9204	749.1 ± 0.24	744.07 ± 0.24	738.99 ± 0.24	733.83 ± 0.25	0.4077 ± 0.017	0.3825 ± 0.016	0.3535 ± 0.015	0.3351 ± 0.014
x1 = 0.9294	748.16 ± 0.24	743.14 ± 0.24	738 ± 0.24	732.83 ± 0.25	0.3999 ± 0.017	0.3756 ± 0.016	0.3485 ± 0.015	0.3282 ± 0.014
x1 = 0.9397	747.1 ± 0.24	742.04 ± 0.24	736.89 ± 0.24	731.69 ± 0.24	0.3904 ± 0.016	0.3661 ± 0.015	0.3396 ± 0.014	0.3202 ± 0.014
x1 = 0.9495	746.08 ± 0.24	741.01 ± 0.24	735.83 ± 0.24	730.61 ± 0.24	0.382 ± 0.016	0.3603 ± 0.015	0.3326 ± 0.014	0.3124 ± 0.013
x1 = 0.9589	745.09 ± 0.24	739.99 ± 0.24	734.79 ± 0.24	729.54 ± 0.24	0.374 ± 0.016	0.3542 ± 0.015	0.3253 ± 0.014	0.3083 ± 0.013
x1 = 0.969	744.04 ± 0.24	738.91 ± 0.24	733.68 ± 0.24	728.41 ± 0.24	0.3661 ± 0.015	0.3441 ± 0.015	0.3206 ± 0.014	0.3023 ± 0.013
x1 = 0.9791	742.95 ± 0.24	737.79 ± 0.24	732.55 ± 0.24	727.25 ± 0.24	0.3582 ± 0.015	0.337 ± 0.014	0.3139 ± 0.013	0.2969 ± 0.013
x1 = 0.9899	741.78 ± 0.24	736.6 ± 0.24	731.33 ± 0.24	726.01 ± 0.24	0.3508 ± 0.015	0.3303 ± 0.014	0.3069 ± 0.013	0.2898 ± 0.013
